In patent US7410975B2, “Small molecule toll-like receptor (TLR) antagonists” (Coley Pharmaceutical Group, Inc., priority 2003, dated 2008):
Structures can show the parent of a compound that is named as a salt.

Each compound was assayed against T1, human TLR9 (hTLR9) (Homo sapiens, UniProt Q9NR96) (assay: Antagonist screen, hTLR9-NFκB-293 cells, 6× NF-κB-luciferase reporter, with EC50 of CpG ODN 2006). Settings: compound at 0.5, 5, 50 μg/ml; EC50 concentration of CpG ODN 2006; 16 h; NF-κB-luciferase.
T1 construct: expressed in transfected cells
T1 sequence (Q9NR96 26-1032): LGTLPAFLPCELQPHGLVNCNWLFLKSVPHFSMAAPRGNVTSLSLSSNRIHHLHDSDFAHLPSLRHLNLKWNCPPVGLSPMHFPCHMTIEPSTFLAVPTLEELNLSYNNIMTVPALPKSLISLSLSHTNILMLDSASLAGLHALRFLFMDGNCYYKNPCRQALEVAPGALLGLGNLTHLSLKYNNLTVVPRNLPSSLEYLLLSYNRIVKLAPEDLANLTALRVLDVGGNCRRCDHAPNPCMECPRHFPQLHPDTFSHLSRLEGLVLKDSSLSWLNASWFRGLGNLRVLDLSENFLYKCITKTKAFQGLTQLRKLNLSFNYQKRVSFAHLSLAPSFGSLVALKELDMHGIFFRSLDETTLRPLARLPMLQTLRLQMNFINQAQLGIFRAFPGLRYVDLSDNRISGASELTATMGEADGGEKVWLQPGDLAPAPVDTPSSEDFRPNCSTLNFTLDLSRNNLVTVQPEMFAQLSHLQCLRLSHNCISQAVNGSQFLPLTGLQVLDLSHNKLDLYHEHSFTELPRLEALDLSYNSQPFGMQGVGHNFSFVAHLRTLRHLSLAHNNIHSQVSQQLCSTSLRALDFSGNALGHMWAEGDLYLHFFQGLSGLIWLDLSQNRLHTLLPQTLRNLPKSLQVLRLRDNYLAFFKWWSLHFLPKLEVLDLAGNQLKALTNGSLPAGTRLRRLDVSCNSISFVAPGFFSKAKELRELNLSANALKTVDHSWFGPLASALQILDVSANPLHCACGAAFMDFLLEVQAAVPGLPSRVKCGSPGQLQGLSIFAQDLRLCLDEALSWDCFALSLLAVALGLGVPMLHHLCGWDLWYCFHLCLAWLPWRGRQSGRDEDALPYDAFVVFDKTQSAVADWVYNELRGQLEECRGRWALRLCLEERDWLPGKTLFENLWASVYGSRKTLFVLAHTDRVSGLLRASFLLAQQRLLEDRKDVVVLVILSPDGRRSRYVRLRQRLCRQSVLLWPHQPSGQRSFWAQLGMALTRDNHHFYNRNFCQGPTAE
Type: cell-based
Method in brief: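 Luciferase fold induction was compared with the ligand-alone baseline, and antagonism was scored by the lowest concentration giving clear down-regulation.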

Structure (SMILES)	hTLR9 (inhibitory effect, antagonist score)
COc1cc2nc(N3CCN(C(=O)C4COc5ccccc5O4)CC3)nc(N)c2cc1OC.CS(=O)(=O)O (stereo not shown) [compound 858, Doxazosin mesylate]	13 (compounds for which there was clear down regulation at 0.5 μg/ml, 5 μg/ml, and 50 μg/ml)
COc1cc2nc(N3CCN(C(=O)C4CCCO4)CC3)nc(N)c2cc1OC.Cl (stereo not shown) [compound 751, Terazosin hydrochloride]	13 (compounds for which there was clear down regulation at 0.5 μg/ml, 5 μg/ml, and 50 μg/ml)
CCN(CC)CCCNc1nc(-c2ccccc2)nc2ccccc12 [compound 2001]	13 (compounds for which there was clear down regulation at 0.5 μg/ml, 5 μg/ml, and 50 μg/ml)
CN(C)C(=O)C(CCN1CCC(O)(c2ccc(Cl)cc2)CC1)(c1ccccc1)c1ccccc1 [compound 144, Loperamidehydrochloride]	12 (compounds for which there was clear down regulation at 5 μg/ml and 50 μg/ml)
CC(C)(C)c1ccc(C(O)CCCN2CCC(C(O)(c3ccccc3)c3ccccc3)CC2)cc1 (stereo not shown) [compound 138, Terfenadine]	12 (compounds for which there was clear down regulation at 5 μg/ml and 50 μg/ml)
COc1cc2c(cc1O)C[C@H]1c3c(cc(O)c(OC)c3-2)CCN1C [compound 600, Boldine]	12 (compounds for which there was clear down regulation at 5 μg/ml and 50 μg/ml)
CN1CCc2cc3c(c4c2C1Cc1ccccc1-4)OCO3.Cl (stereo not shown) [compound 669, Remerine hydrochloride]	— (compounds for which there was no clear down regulation even at 50 μg/ml)
CCN(CC)CCCC(C)Nc1nc(/C=C/c2ccc(Cl)cc2)nc2cc3ccccc3cc12 (stereo not shown) [compound 2000]	13 (compounds for which there was clear down regulation at 0.5 μg/ml, 5 μg/ml, and 50 μg/ml)
CN1CCc2cccc3c2[C@H]1Cc1ccc(O)c(O)c1-3.Cl [compound 101, Apomorphinehydrochloride (R, —)]	12 (compounds for which there was clear down regulation at 5 μg/ml and 50 μg/ml)

Same assay, conditions: hTLR9-NFκB-293 cells, with EC50 of CpG ODN 2006; compound at 0.5, 5 and 50 μg/ml

Structure (SMILES)	hTLR9 (inhibitory effect)
CN1CCc2c1nc1ccccc1c2NC(=O)CN1CCCCCC1 [compound 1003]	13 (compounds for which there was clear down regulation at 0.5 μg/ml, 5 μg/ml, and 50 μg/ml)
Nc1c2c(nc3ccccc13)N(Cc1ccccc1)CC2 [compound 1217, 1-Benzyl-2,3-dihydro-1H-pyrrolo[2,3-b]quinolin-4-ylamine]	13 (compounds for which there was clear down regulation at 0.5 μg/ml, 5 μg/ml, and 50 μg/ml)
CCCCCCN(CCCCCC)CC(=O)Nc1c2c(nc3ccccc13)N(C)CC2 [compound 1224]	11 (compounds for which there was clear down regulation only at 50 μg/ml)
O=c1c2c(nc(NCCO)n1-c1ccccc1)-c1ccccc1CC21CCCC1 [compound 891]	11 (compounds for which there was clear down regulation only at 50 μg/ml)
CCCCCCCCCCCC(=O)Nc1c2c(nc3ccccc13)N(C)CC2 [compound 1334]	11 (compounds for which there was clear down regulation only at 50 μg/ml)
COc1cc2cc3c4cc(OC)c(OC)cc4cc[n+]3c(C)c2cc1OC [compound 431, Coralyne chloridehydrate]	13 (compounds for which there was clear down regulation at 0.5 μg/ml, 5 μg/ml, and 50 μg/ml)
O=C1c2ccc(Oc3ccc(S(=O)(=O)c4ccc(Oc5ccc6c(c5)C(=O)N(c5ccccn5)C6=O)cc4)cc3)cc2C(=O)N1c1ccccn1 [compound 1367]	— (compounds for which there was no clear down regulation even at 50 μg/ml)
CN1CCc2c1nc1ccc(Br)cc1c2N [compound 1142, 6-Bromo-1-methyl-2,3-dihydro-1H-pyrrolo[2,3-b]quinolin-4-ylamine]	13 (compounds for which there was clear down regulation at 0.5 μg/ml, 5 μg/ml, and 50 μg/ml)
CN(C)CCN(Cc1ccc(Cl)cc1)c1ccccn1.Cl [compound 807, Chloro-pyraminehydrochloride]	12 (compounds for which there was clear down regulation at 5 μg/ml and 50 μg/ml)
CCOc1ccc(Cc2nccc3cc(OCC)c(OCC)cc23)cc1OCC.Cl [compound 830, Ethaverinehydrochloride]	11 (compounds for which there was clear down regulation only at 50 μg/ml)
Cc1ccc(-n2c(NCCO)nc3c(c2=O)C2(CCCCC2)Cc2ccccc2-3)cc1 [compound 1137]	11 (compounds for which there was clear down regulation only at 50 μg/ml)
CC[N+](C)(CC)CCC[n+]1c(-c2ccccc2)c2cc(N)ccc2c2ccc(N)cc21.[I-].[I-] [compound 792, Propidium iodide]	12 (compounds for which there was clear down regulation at 5 μg/ml and 50 μg/ml)
O=C1c2ccc(S(=O)(=O)c3ccc4c(c3)C(=O)N(c3ccccn3)C4=O)cc2C(=O)N1c1ccccn1 [compound 1163]	11 (compounds for which there was clear down regulation only at 50 μg/ml)
CN1CCc2c1nc1ccccc1c2NC(=O)CN1CCN(c2ccccc2)CC1 [compound 1212]	12 (compounds for which there was clear down regulation at 5 μg/ml and 50 μg/ml)
Cc1ccc2nc3c(c(N)c2c1)CCN3C [compound 1091, 1,6-Dimethyl-2,3-dihydro-1H-pyrrolo[2,3-b]quinolin-4-ylamine]	13 (compounds for which there was clear down regulation at 0.5 μg/ml, 5 μg/ml, and 50 μg/ml)
CN1CCCCc2c1nc1ccccc1c2N [compound 1185, 1-Methyl-2,3,4,5-tetrahydro-1H-azepino[2,3-b]quinolin-6-ylamine]	13 (compounds for which there was clear down regulation at 0.5 μg/ml, 5 μg/ml, and 50 μg/ml)
NNc1nc2c(c(=O)n1-c1ccccc1)C1(CCCC1)Cc1ccccc1-2 [compound 1320]	13 (compounds for which there was clear down regulation at 0.5 μg/ml, 5 μg/ml, and 50 μg/ml)
O=c1c2c(nc(NCCO)n1Cc1ccccc1)-c1ccccc1CC21CCCC1 [compound 926]	11 (compounds for which there was clear down regulation only at 50 μg/ml)
NNc1nc2c(c(=O)n1C1CCCC1)C1(CCCC1)Cc1ccccc1-2 [compound 1248]	— (compounds for which there was no clear down regulation even at 50 μg/ml)
O=C(CN1CCCC1)Nc1c2c(nc3ccccc13)N(c1ccccc1)CC2 [compound 1244]	12 (compounds for which there was clear down regulation at 5 μg/ml and 50 μg/ml)
CN1CCc2c1nc1ccccc1c2N [compound 990, 1-Methyl-2,3-dihydro-1H-pyrrolo[2,3-b]quinolin-4-ylamine]	13 (compounds for which there was clear down regulation at 0.5 μg/ml, 5 μg/ml, and 50 μg/ml)
COc1ccc2cc3[n+](cc2c1OC)CCc1cc2c(cc1-3)OCO2.[Cl-] [compound 586, Berberine chloride]	— (compounds for which there was no clear down regulation even at 50 μg/ml)
O=c1[nH]c(NCCO)nc2c1C1(CCCC1)Cc1ccccc1-2 [compound 1322]	— (compounds for which there was no clear down regulation even at 50 μg/ml)
Cn1c(NN)nc2c(c1=O)C1(CCCC1)Cc1ccccc1-2 [compound 1213]	— (compounds for which there was no clear down regulation even at 50 μg/ml)
COc1ccc(Cc2nccc3cc(OC)c(OC)cc23)cc1OC.Cl [compound 583, Papaverinehydrochloride]	12 (compounds for which there was clear down regulation at 5 μg/ml and 50 μg/ml)
